The test system of the series is rodent carcinogenicity bioassays, tumor incidence. Kind of series: CCRIS carcinogenicity studies. The procedure, abridged: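 Archive of carcinogenicity, mutagenicity, tumor promotion and tumor inhibition results drawn from journals, NCI reports and other sources, expert-reviewed; covers 1985-2011 and is no longer updated.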

Each structure is given as a SMILES string. Active and inactive are the calls of the source. How the calls were made is not given here.

Consider `Nc1ccc(Sc2ccc(N)cc2)cc1`, for which the carcinogen call was “active; positive” (Species: MOUSE, Strain/Sex: B6C3F1/FEMALE, Route: ORAL, Dose: 0, 2500, 5000 PPM IN DIET, Dose: 0, 2500, 5000 PPM IN DIET, Tumor Site: Type of Lesion: LIVER: HEPATOCELLULAR CARCINOMA, THYROID GLAND: FOLLICULAR CELL ADENOMA OR CARCINOMA); “active; positive” (Species: MOUSE, Strain/Sex: B6C3F1/MALE, Route: ORAL, Dose: 0, 2500, 5000 PPM IN DIET, Dose: 0, 2500, 5000 PPM IN DIET, Tumor Site: Type of Lesion: LIVER: HEPATOCELLULAR ADENOMA OR CARCINOMA, THYROID GLAND: FOLLICULAR CELL ADENOMA OR CARCINOMA); “active; positive” (Species: RAT, Strain/Sex: F344/FEMALE, Route: ORAL, Dose: 0, 1500, 3000 PPM IN DIET, Dose: 0, 1500, 3000 PPM IN DIET, Tumor Site: Type of Lesion: THYROID GLAND: FOLLICULAR CELL CARCINOMA, UTERUS: ADENOCARCINOMA, NOS); “active; positive” (Species: RAT, Strain/Sex: F344/MALE, Route: ORAL, Dose: 0, 1500, 3000 PPM IN DIET (68-72 WEEKS), Dose: 0, 1500, 3000 PPM IN DIET (68-72 WEEKS), Tumor Site: Type of Lesion: LIVER: HEPATOCELLULAR ADENOMA OR CARCINOMA, COLON: ADENOCARCINOMA, NOS, THYROID GLAND: FOLLICULAR CELL ADENOMA OR CARCIN, Tumor Site: Type of Lesion: LIVER: HEPATOCELLULAR ADENOMA OR CARCINOMA, COLON: ADENOCARCINOMA, NOS, THYROID GLAND: FOLLICULAR CELL ADENOMA OR CARCIN).

`O=C(O)CCCC/C=C(\c1ccccc1)c1cccnc1`: the carcinogen call was “inactive; negative” (Species: MOUSE, Strain/Sex: CD-1/FEMALE, Route: ORAL, Dose: 0, 10, 30, 100, 300 MG/KG/D IN DIET FOR 2 YR (STUDY DURATION: 2 YR), Dose: 0, 10, 30, 100, 300 MG/KG/D IN DIET FOR 2 YR (STUDY DURATION: 2 YR)); “inactive; negative” (Species: MOUSE, Strain/Sex: CD-1/MALE, Route: ORAL, Dose: 0, 10, 30, 100, 300 MG/KG/D IN DIET FOR 2 YR (STUDY DURATION: 2 YR), Dose: 0, 10, 30, 100, 300 MG/KG/D IN DIET FOR 2 YR (STUDY DURATION: 2 YR)); “inactive; negative” (Species: RAT, Strain/Sex: STRAIN-CD/FEMALE, Route: ORAL, Dose: 0, 10, 30, 100 MG/KG/D IN DIET FOR 2 YR (STUDY DURATION: 2 YR), Dose: 0, 10, 30, 100 MG/KG/D IN DIET FOR 2 YR (STUDY DURATION: 2 YR)); “inactive; negative” (Species: RAT, Strain/Sex: STRAIN-CD/MALE, Route: ORAL, Dose: 0, 10, 30, 100 MG/KG/D IN DIET FOR 2 YR (STUDY DURATION: 2 YR), Dose: 0, 10, 30, 100 MG/KG/D IN DIET FOR 2 YR (STUDY DURATION: 2 YR)).

Turning to `CC(C)CCC[C@@H](C)[C@H]1CC[C@H]2[C@@H]3C[C@H]4O[C@]45C[C@@H](O)CC[C@]5(C)[C@H]3CC[C@]12C`, the carcinogen call (Species: RAT, Strain/Sex: STRAIN-CD/FEMALE, Route: INJECTION, Dose: 0, 12.3 UMOL (TOTAL DOSE) 1/6 INJECTED UNDER EACH OF 3 THORACIC AND 3 INGUINAL NIPPLES ONCE (STUDY DURATION: 44 WK)) was “inactive; negative”.

In the case of `CN(CCC#N)N=O`, the carcinogen call was “active; positive” (Species: RAT, Strain/Sex: F344/FEMALE, Route: SUBCUTANEOUS, Dose: 0, 0.019 MMOL 3/WK FOR 20 WK (STUDY DURATION: 24 WK), Tumor Site: Type of Lesion: ESOPHAGUS: PAPILLOMA, NASAL CAVITY: PAPILLOMA, TONGUE: PAPILLOMA OR CARCINOMA, Tumor Site: Type of Lesion: ESOPHAGUS: PAPILLOMA, NASAL CAVITY: PAPILLOMA, TONGUE: PAPILLOMA OR CARCINOMA); “active; positive” (Species: RAT, Strain/Sex: F344/MALE, FEMALE, Route: SUBCUTANEOUS, Dose: 0, 2.13 MG IN 0.3 ML SALINE 3/WK FOR 20 WK (TOTAL DOSE 127.8 MG) (STUDY DURATION: 24 WK), Tumor Site: Type of Lesion: ESOPHAGUS: SQUAMOUS CELL PAPILLOMA, SQUAMOUS CELL CARCINOMA, TONGUE: PAPILLOMA, CARCINOMA, NASAL CAVITY: PAPILLOMA, ESTH, Tumor Site: Type of Lesion: ESOPHAGUS: SQUAMOUS CELL PAPILLOMA, SQUAMOUS CELL CARCINOMA, TONGUE: PAPILLOMA, CARCINOMA, NASAL CAVITY: PAPILLOMA, ESTH); “active; positive” (Species: RAT, Strain/Sex: F344/MALE,FEMALE, Route: SUBCUTANEOUS, Dose: 2.13 MG 3/WK FOR 20 WK (TOTAL DOSE 129 MG), Tumor Site: Type of Lesion: ESOPHAGUS: PAPILLOMA, CARCINOMA, NASAL CAVITY: PAPILLOMA, TONGUE: PAPILLOMA, CARCINOMA, Tumor Site: Type of Lesion: ESOPHAGUS: PAPILLOMA, CARCINOMA, NASAL CAVITY: PAPILLOMA, TONGUE: PAPILLOMA, CARCINOMA); “active; positive” (Species: RAT, Strain/Sex: F344/MALE, Route: MUCOUS MEMBRANE, Dose: 0, 0.3 ML OF A 15 MMOL WATER SOLUTION 1/D 3 D/WK FOR 1 WK THEN 1/D 5 D/WK FOR WK 2-4 THEN 2/D 5 D/WK FOR WK 5-6 (STUDY D, Tumor Site: Type of Lesion: NASAL CAVITY: CARCINOMA, PAPILLOMA, ADENOMA, LUNG: ADENOCARCINOMA, ADENOMA, LIVER: CARCINOMA, ADENOMA, ESOPHAGUS: PAPILL, Tumor Site: Type of Lesion: NASAL CAVITY: CARCINOMA, PAPILLOMA, ADENOMA, LUNG: ADENOCARCINOMA, ADENOMA, LIVER: CARCINOMA, ADENOMA, ESOPHAGUS: PAPILL); “active; positive” (Species: RAT, Strain/Sex: F344/MALE, Route: SUBCUTANEOUS, Dose: 0, 0.019 MMOL 3/WK FOR 20 WK (STUDY DURATION: 24 WK), Tumor Site: Type of Lesion: ESOPHAGUS: PAPILLOMA, NASAL CAVITY: PAPILLOMA, TONGUE: PAPILLOMA OR CARCINOMA, Tumor Site: Type of Lesion: ESOPHAGUS: PAPILLOMA, NASAL CAVITY: PAPILLOMA, TONGUE: PAPILLOMA OR CARCINOMA).

As to `CCC(Br)(CC)C(=O)NC(N)=O`, the carcinogen call was “inactive; negative” (Species: MOUSE, Strain/Sex: B6C3F1/FEMALE, Route: ORAL, Dose: 0, 1250, 2500 PPM IN DIET, Dose: 0, 1250, 2500 PPM IN DIET); “inactive; negative” (Species: MOUSE, Strain/Sex: B6C3F1/MALE, Route: ORAL, Dose: 0, 1250, 2500 PPM IN DIET, Dose: 0, 1250, 2500 PPM IN DIET); “inactive; negative” (Species: RAT, Strain/Sex: F344/FEMALE, Route: ORAL, Dose: 0, 1250, 2500 PPM IN DIET, Dose: 0, 1250, 2500 PPM IN DIET); “inactive; negative” (Species: RAT, Strain/Sex: F344/MALE, Route: ORAL, Dose: 0, 1250, 2500 PPM IN DIET, Dose: 0, 1250, 2500 PPM IN DIET).

Turning to `c1ccncc1`, the carcinogen call runs as follows: (Species: MOUSE, Strain/Sex: B6C3F1/FEMALE, Route: ORAL, Dose: 0, 125, 250, 500 PPM IN DRINKING WATER FOR 105 WK (STUDY DURATION: 105 WK), Dose: 0, 125, 250, 500 PPM IN DRINKING WATER FOR 105 WK (STUDY DURATION: 105 WK), Tumor Site: Type of Lesion: LIVER: HEPATOCELLULAR ADENOMA, HEPATOCELLULAR CARCINOMA, OR HEPATOBLASTOMA) “active; positive”; (Species: MOUSE, Strain/Sex: B6C3F1/MALE, Route: ORAL, Dose: 0, 250, 500, 1000 PPM IN DRINKING WATER FOR 104 WK (STUDY DURATION: 104 WK), Dose: 0, 250, 500, 1000 PPM IN DRINKING WATER FOR 104 WK (STUDY DURATION: 104 WK), Tumor Site: Type of Lesion: LIVER: HEPATOCELLULAR ADENOMA, HEPATOCELLULAR CARCINOMA, OR HEPATOBLASTOMA) “active; positive”; (Species: RAT, Strain/Sex: F344/FEMALE, Route: ORAL, Dose: 0, 100, 200, 400 PPM IN DRINKING WATER FOR 105 WK (STUDY DURATION: 105 WK), Dose: 0, 100, 200, 400 PPM IN DRINKING WATER FOR 105 WK (STUDY DURATION: 105 WK), Tumor Site: Type of Lesion: MULTIPLE ORGANS: MONONUCLEAR CELL LEUKEMIA) “equivocal”; (Species: RAT, Strain/Sex: F344/MALE, Route: ORAL, Dose: 0, 100, 200, 400 PPM IN DRINKING WATER FOR 104 WK (STUDY DURATION: 104 WK), Dose: 0, 100, 200, 400 PPM IN DRINKING WATER FOR 104 WK (STUDY DURATION: 104 WK), Tumor Site: Type of Lesion: KIDNEY: RENAL TUBULE ADENOMA, RENAL TUBULE ADENOMA OR CARCINOMA) “active; positive”; (Species: RAT, Strain/Sex: WISTAR/MALE, Route: ORAL, Dose: 0, 100, 200, 400 PPM IN DRINKING WATER FOR 104 WK (STUDY DURATION: 104 WK), Dose: 0, 100, 200, 400 PPM IN DRINKING WATER FOR 104 WK (STUDY DURATION: 104 WK), Tumor Site: Type of Lesion: TESTIS: INTERSTITIAL CELL ADENOMA) “equivocal”.

Consider `Cc1cc(=O)[nH]c(=S)[nH]1`, for which the carcinogen call reads like this: (Species: HAMSTER, Route: ORAL, Tumor Site: Type of Lesion: THYROID GLAND) “active; positive”; (Species: MOUSE, Route: ORAL, Tumor Site: Type of Lesion: THYROID GLAND) “active; positive”; (Species: RAT, Route: ORAL, Tumor Site: Type of Lesion: KIDNEY, THYROID GLAND) “active; positive”.

For the origin of these results see PubChem BioAssay AID1259411 (Chemical Carcinogenesis Research Information System (CCRIS), 2018).
